# Results from a melting point compilation (Tetko et al.; mined from patent text by program, amines drawn as free bases though some values may be those of a salt).
row,melting point [°C],Compound
1,167 to 168,O=C(Cn1c(=O)c2cc(Cl)ccc2n(Cc2ccc(Cl)cc2Cl)c1=O)OCCO
2,174 to 176,O=C(O)c1ccc(SCC(=O)C23CC4CC(CC(C4)C2)C3)nc1
3,249 to 252,O=C1c2ccc(Cl)cc2CN2C(=NO)CCC12 (centres undefined)
4,121 to 122,C[C@H]1COS(=O)(=O)N1C(=O)OC(C)(C)C
5,244 to 245,Nc1nnc(-c2ccc3ncn(-c4cccc(C(F)(F)F)c4)c3c2)o1
6,182 to 183,Oc1ccc(-c2nc(COc3ccc(CCCn4ccnc4)cc3)co2)cc1
7,107 to 108,COc1cc(C(C)C)c2c(c1)S(=O)(=O)N(COc1cc(C(F)(F)F)nn1C)C2=O
8,140 to 143,Cc1c(N2CCC(C3(N)CCC3)C2)c(F)cc2c(=O)c(C(=O)O)cn([C@@H]3C[C@@H]3F)c12 (some centres undefined)
9,141 to 145,Cc1cc(C2CCN(S(=O)(=O)C3(C(=O)NO)CCOCC3)CC2)ccc1-c1cccc(OC[C@H](O)CO)c1
10,202,Cc1nc2nc(NCCN3CCC(Nc4nc5ccccc5n4Cc4ccc(F)cc4)CC3)ccc2[nH]1
11,140 to 142,CCOC(=O)c1cn(CC)c2sc(C)cc2c1=O
12,88,CCCCN(CCCC)CCCOc1ccc(S(=O)(=O)c2ccccc2C(C)C)cc1
13,280 to 285,NS(=O)(=O)c1ccc(NC(=O)Nc2ccc3c(c2)Cc2ccccc2-3)cc1
14,177 to 178,COc1ccc(-c2c(Br)c(CBr)nc3sc4c(c23)CCN(Cc2ccccc2)C4)cc1
15,102 to 104,CSc1ccc(C=C2CCc3cc(OCCn4ccnc4)ccc3C2=O)s1
16,203 to 204,O=C(C=Cc1ccc(C(F)(F)F)cc1-c1nccs1)Nc1ccc2[nH]ccc2c1
17,175,CC(=O)Oc1ccccc1C(=O)N1CC(O)C[C@H]1C(=O)O (some centres undefined)
18,118 to 119,COc1cc(N)c(Cl)cc1C(=O)NN1CCN2CCCCC2C1 (centres undefined)
19,60 to 62,COC(=O)C(=CNC(C)=O)C(C)=O
20,89,Cc1cccc(N2CCN(CCCOc3ccc4ccc(=O)oc4c3)CC2)c1C
21,115 to 120,CC(Cc1c[nH]c2ccccc12)(NC(=O)OC1C2CC3CC(C2)CC1C3)C(=O)NC(CC(=O)O)Cc1ccc(N)cc1 (centres undefined)
22,165 to 173,COC(=O)c1sccc1S(=O)(=O)NC(=O)Nc1nc(C)cc(OC)n1
23,172 to 174,CCN(CC)CCNC(=O)c1ccc(-c2n[nH]c3c2Cc2ccccc2-3)cc1

# Further lines, the compound ahead of its results:
row,Compound,melting point [°C]
1,O=C1Nc2cccnc2N(C(=O)CN2CCC(CCCN3CCCCC3)CC2)c2ccccc21,202 to 203
2,COc1cc2c(=O)n3cccc3cnc2cc1OCc1ccccc1,58 to 61
3,CC(C)n1nc(-c2sc(NC(=O)CCNCc3ccccn3)nc2-c2ccccc2)ccc1=O,200 to 201
4,O=S(CBr)c1ccc(Cl)cc1 (centres undefined),100
5,O=Cc1cccc(NC(=O)NC2N=C(c3ccccc3F)c3ccccc3N(CC(=O)N3CC4CCC(CC4)C3)C2=O)c1 (racemic),164 to 182
6,Cc1cc(-c2c[nH]c(C)n2)ccn1,115 to 117
7,COc1ccc(-c2ccnc3c(C(N)=O)ncn23)cc1,246 to 249
8,C=CCNc1nc(NCCN)nc2ccc([N+](=O)[O-])cc12,126 to 128
9,Cc1nc2ncnn2c2c1CCN2C1CCCCCCC1,188 to 190
10,COc1ccc(Cl)cc1C(C)(C)c1cc(Cl)ccc1O,137
11,Cc1noc(NS(=O)(=O)c2ccccc2-c2ccc(-c3ncccn3)cc2)c1C,> 210
12,CSc1ccc(C(=O)Cc2ccc(F)cc2)cc1,139 to 140
13,CCn1nc(Cc2c(Cl)cncc2Cl)c2ccc(OC)cc2c1=O,150 to 151
14,CC(C)(C)c1cc(C=C2SC(=S)NC2=O)cc(C(C)(C)C)c1O,260
15,CCc1c(C)nc2cccc(C)n2c1=O,127 to 128
16,CCn1c(=O)c2[nH]c(/C=C/c3cccc(Cl)c3)nc2n(CC)c1=O,> 280
